Experimental data taken from patent US11098071B2, “GPR84 receptor antagonist and use thereof” (SHANGHAI INSTITUTE OF MATERIA MEDICA, CHINESE ACADEMY OF …, priority 2017, dated 2021).

Each molecule was assayed against T1, GPR84 (Homo sapiens, UniProt Q9NQS5) (assay: GPR84 calcium flow model (antagonism of agonist 6-OAU, Fluo-4 fluorescence)). Conditions: not given.
T1 construct: expressed in transfected cells; host or cells: HEK293
Type: cell-based
Procedure: GPR84 antagonistic activity of the compounds of the invention was determined.
The human GPR84 cell line was obtained by transfecting a HEK293 cell line with a plasmid encoding GPR84 and Gα16 proteins. Fluorescent dye Fluo-4AM was purchased from Invitrogen.
Intracellular Ca^2+ ion is a very important second messenger of G protein-coupled receptor signaling pathway. […] Fluo-4 is a Ca^2+ ion-specific fluorescent probe that binds quantitatively to Ca^2+ ions and emits fluorescence. Therefore, the agonistic or antagonistic activity of the compound can be detected in a 96-well or 384-well flat-bottomed microplate using a fluorescence assay.
Detection of receptor inhibitory effect by GPR84 antagonist: After incubated with fluorescent dye Fluo-4, GPR84 cells were incubated with different concentrations of antagonistic compounds for a period of time to occupy the binding site of agonist to GPR84 (antagonistic binding site). A certain concentration of agonist (6-OAU) was added to compete with the antagonist compound for binding sites. […] The half-inhibitory concentration (IC50) of the compound was calculated by using GraphPad PRISM software.
The above ingredients were weighed and dissolved in ultrapure water. pH was adjusted to 7.4 by using hydrochloric acid or NaOH solution. The mixture was filtered and stored at 4° C. for one month.
The buffer was prepared on site.
The preparation of each milliliter of dye is as follows. 1 μL of 2 mM Fluo-4 AM was mixed with 10 μL of 3% Cremophor EL, then diluted with 1 mL of calcium buffer and mixed.
The cells were seeded at a density of 40,000 cells/well into a 96-well cell culture plate, and cultured for 24 hours or more to a cell density of 80 to 90% for experimental detection. The culture medium in the well to be tested was removed and 40 μL/well of freshly prepared dye was added and incubated in a 37-degree incubator for 40 min to 50 min.
The compound was formulated during cell incubation (this step can also be carried out in advance). The compound used as antagonist was diluted with calcium buffer freshly prepared before the experiment to 1.5 times of the final working concentration. The compound as agonist was diluted to 3 times of the final working concentration (if the compound is dissolved in DMSO, the final work concentration of DMSO shall not exceed 1%).
After the incubation step was completed, the dye was discarded, and the residue was washed with calcium buffer once and then replaced with 50 μL of calcium buffer containing different concentrations of antagonist and incubated for another 10 min.

T1 sequence (Q9NQS5 whole entry): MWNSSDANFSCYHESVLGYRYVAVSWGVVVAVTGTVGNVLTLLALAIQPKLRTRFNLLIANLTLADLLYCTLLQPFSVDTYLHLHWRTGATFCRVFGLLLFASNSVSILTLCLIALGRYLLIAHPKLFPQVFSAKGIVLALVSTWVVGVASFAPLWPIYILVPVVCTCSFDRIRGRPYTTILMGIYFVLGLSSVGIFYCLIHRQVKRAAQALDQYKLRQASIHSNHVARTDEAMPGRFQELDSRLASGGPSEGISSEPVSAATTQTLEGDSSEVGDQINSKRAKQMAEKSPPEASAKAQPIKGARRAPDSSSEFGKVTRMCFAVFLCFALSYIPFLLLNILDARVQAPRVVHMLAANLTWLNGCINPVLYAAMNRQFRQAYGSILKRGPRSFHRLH

Compound | IC50 [nM]
O=P(O)(Oc1cc2ccccc2c2ccccc12)Oc1cc2ccccc2c2ccccc12 [CLH472] | 1000 to 10000
O=P(O)(Oc1c2ccccc2cc2ccccc12)Oc1c2ccccc2cc2ccccc12 [CLH472a] | 100 to 1000

Same assay, conditions: HEK293 cell line transfected with GPR84 and Gα16; agonist 6-OAU; Fluo-4; read-out: IC50 of the compound detected by the GPR84 calcium flow model

IC50 [nM] | Compound
100 to 1000 | O=P(O)(OC1=Cc2ccccc2Sc2c(F)cccc21)OC1=Cc2ccccc2Sc2c(F)cccc21 [CLH572a]
0.1 to 100 | COc1cccc2c1Sc1ccccc1C=C2OP(=O)(O)OC1=Cc2ccccc2Sc2c(O)cccc21 [CLH582]
1000 to 10000 | O=P(O)(OC1=Cc2ccccc2S(=O)(=O)c2ccccc21)OC1=Cc2ccccc2S(=O)(=O)c2ccccc21 [CLH600]
100 to 1000 | O=P(O)(OC1=Cc2ccccc2C2(OCCO2)c2ccccc21)OC1=Cc2ccccc2C2(OCCO2)c2ccccc21 [CLH616a]
0.1 to 100 | CCc1cccc2c1Sc1ccccc1C=C2OP(=O)(O)OC1=Cc2ccccc2Sc2c(CC)cccc21 [XYF628c]
100 to 1000 | O=P(O)(OC1=Cc2ccccc2Oc2ccccc21)OC1=Cc2ccccc2Oc2ccccc21 [CLH482]
100 to 1000 | O=P(O)(OC1=Cc2cccc(Cl)c2Sc2ccccc21)OC1=Cc2cccc(Cl)c2Sc2ccccc21 [XYF604]
100 to 1000 | CC1c2ccccc2C=C(OP(=O)(O)OC2=Cc3ccccc3C(C)c3ccccc32)c2ccccc21 (stereo not drawn) [CLH528a]
1000 to 10000 | O=P(O)(OC1=Cc2ccccc2[S+]([O-])c2ccccc21)OC1=Cc2ccccc2S(=O)(=O)c2ccccc21 (stereo not drawn) [CLH584]
100 to 1000 | O=P(O)(O/C1=C/c2ccccc2CCc2ccccc21)O/C1=C/c2ccccc2CCc2ccccc21 [XYF528]
0.1 to 100 | O=P(O)(OC1=Cc2ccccc2Sc2ccccc21)OC1=Cc2ccccc2Sc2ccccc21 [CLH514]
100 to 1000 | O=P(O)(O/C1=C/c2ccccc2/C=C\c2ccccc21)O/C1=C/c2ccccc2/C=C\c2ccccc21 [CLH524]
100 to 1000 | C=C1c2ccccc2C=C(OP(=O)(O)OC2=Cc3ccccc3C(=C)c3ccccc32)c2ccccc21 [CLH524a]
0.1 to 100 | O=P(O)(OC1=Cc2ccccc2Sc2c(O)cccc21)OC1=Cc2ccccc2Sc2c(O)cccc21 [CLH568]
100 to 1000 | O=P(O)(OC1=Cc2cccc(F)c2Sc2ccccc21)OC1=Cc2cccc(F)c2Sc2ccccc21 [XYF573a]
0.1 to 100 | COc1cccc2c1Oc1ccccc1C=C2OP(=O)(O)OC1=Cc2ccccc2Oc2c(OC)cccc21 [XYF564-2a]
100 to 1000 | CN1c2ccccc2C=C(OP(=O)(O)OC2=Cc3ccccc3N(C)c3ccccc32)c2ccccc21 [CLH508]

The next lines start with the molecule.

Compound | IC50 [nM]
CC(C)Oc1cccc2c1Sc1ccccc1C=C2OP(=O)(O)OC1=Cc2ccccc2Sc2c(OC(C)C)cccc21 [CLH652] | 100 to 1000
COc1cccc2c1Sc1c(OC)cccc1C(OP(=O)(O)OC1=Cc3cccc(OC)c3Sc3c(OC)cccc31)=C2 [XYF656a] | 100 to 1000
COc1ccc2c(c1)Sc1ccccc1C=C2OP(=O)(O)OC1=Cc2ccccc2Sc2cc(OC)ccc21 [CLH596b] | 0.1 to 100
O=P(O)(OC1=CC2=C(CCCC2)Sc2ccccc21)OC1=CC2=C(CCCC2)Sc2ccccc21 [CLH544] | 100 to 1000
COc1ccc(OC)c2c1Sc1ccccc1C=C2OP(=O)(O)OC1=Cc2ccccc2Sc2c(OC)ccc(OC)c21 [CLH656a] | 100 to 1000
O=P(O)(OC1=Cc2cc(Cl)ccc2Sc2ccccc21)OC1=Cc2cc(Cl)ccc2Sc2ccccc21 [XYF604b] | 0.1 to 100
CCc1cccc2c1Sc1cc(F)ccc1C=C2OP(=O)(O)OC1=Cc2ccc(F)cc2Sc2c(CC)cccc21 [XYF628] | 1000 to 10000
O=P(O)(OC1=Cc2ccsc2Sc2sccc21)OC1=Cc2ccsc2Sc2sccc21 [XYF560] | 100 to 1000
CCc1cccc2c1Sc1c(F)cccc1C=C2OP(=O)(O)OC1=Cc2cccc(F)c2Sc2c(CC)cccc21 [XYF628a] | 0.1 to 100
COc1cccc2c1Cc1ccccc1C=C2OP(=O)(O)OC1=Cc2ccccc2Cc2c(OC)cccc21 [CLH560] | 0.1 to 100
COc1cccc2c1Sc1cccc(F)c1C=C2OP(=O)(O)OC1=Cc2c(F)cccc2Sc2c(OC)cccc21 [XYF632c] | 0.1 to 100
O=P(O)(OC1=Cc2ccccc2Sc2sccc21)OC1=Cc2ccccc2Sc2sccc21 [CLH548] | 0.1 to 100
O=P(O)(OC1=Cc2ccccc2Sc2ccc(F)cc21)OC1=Cc2ccccc2Sc2ccc(F)cc21 [CLH572c] | 100 to 1000
COc1cccc2c1Sc1ccc(F)cc1C=C2OP(=O)(O)OC1=Cc2cc(F)ccc2Sc2c(OC)cccc21 [XYF632b] | 0.1 to 100
CCOC(=O)C(C)c1ccc2c(c1)C=C(OP(=O)(O)OC1=Cc3ccccc3Sc3c(OC)cccc31)c1ccccc1S2 (stereo not drawn) [CLH666] | 0.1 to 100
O=P(O)(OC1=Cc2cc(F)ccc2Sc2ccccc21)OC1=Cc2cc(F)ccc2Sc2ccccc21 [XYF573b] | 0.1 to 100
COc1cccc2c1Sc1c(F)cccc1C=C2OP(=O)(O)OC1=Cc2cccc(F)c2Sc2c(OC)cccc21 [XYF632a] | 0.1 to 100
O=P(O)(OC1=Cc2ccccc2SC2=C1CCCC2)OC1=Cc2ccccc2SC2=C1CCCC2 [CLH544a] | 100 to 1000

Compound | IC50 [nM]
COc1cccc2c1Sc1cc(F)ccc1C=C2OP(=O)(O)OC1=Cc2ccc(F)cc2Sc2c(OC)cccc21 [XYF632] | 0.1 to 100
O=P(O)(OC1=Cc2c(F)cccc2Cc2ccccc21)OC1=Cc2c(F)cccc2Cc2ccccc21 [XYF536c] | 0.1 to 100
CCOc1cccc2c1Sc1ccccc1C=C2OP(=O)(O)OC1=Cc2ccccc2Sc2c(OCC)cccc21 [CLH624] | 0.1 to 100
COc1cc2c(cc1OC)C(OP(=O)(O)OC1=Cc3ccccc3Sc3cc(OC)c(OC)cc31)=Cc1ccccc1S2 [CLH656] | 0.1 to 100
O=P(O)(OC1=Cc2c(F)cccc2Sc2ccccc21)OC1=Cc2c(F)cccc2Sc2ccccc21 [XYF573c] | 0.1 to 100
O=P(O)(OC1=Cc2c(F)cccc2Oc2ccccc21)OC1=Cc2c(F)cccc2Oc2ccccc21 [XYF540] | 0.1 to 100
CCOC(=O)C(C)c1ccc2c(c1)C=C(OP(=O)(O)OC1=Cc3cc(C(C)C(=O)OCC)ccc3Sc3ccccc31)c1ccccc1S2 (stereo not drawn) [CLH736] | 1000 to 10000
COc1cccc2c1SC1=C(C=C2OP(=O)(O)OC2=CC3=C(SCC3)Sc3c(OC)cccc32)CCS1 [XYF608] | 0.1 to 100
O=P(O)(CC1=Cc2ccccc2Sc2ccccc21)CC1=Cc2ccccc2Sc2ccccc21 [XYF532] | 1000 to 10000
Cc1ccc2c(c1)C(OP(=O)(O)OC1=Cc3ccccc3Sc3ccc(C)cc31)=Cc1ccccc1S2 [XYF564c] | 0.1 to 100
CCc1cccc2c1Sc1ccc(F)cc1C=C2OP(=O)(O)OC1=Cc2cc(F)ccc2Sc2c(CC)cccc21 [XYF628b] | 100 to 1000
O=P(O)(OC1=Cc2ccccc2Sc2cc(F)ccc21)OC1=Cc2ccccc2Sc2cc(F)ccc21 [CLH572b] | 100 to 1000
COc1ccc2c(c1)Sc1c(OC)cccc1C(OP(=O)(O)OC1=Cc3ccc(OC)cc3Sc3c(OC)cccc31)=C2 [XYF656] | 0.1 to 100
COc1ccc2c(c1)C(OP(=O)(O)OC1=Cc3ccccc3Sc3ccc(OC)cc31)=Cc1ccccc1S2 [CLH596c] | 0.1 to 100
O=P(O)(OC1=Cc2ccc(F)cc2Sc2ccccc21)OC1=Cc2ccc(F)cc2Sc2ccccc21 [XYF573] | 100 to 1000
COc1cccc2c1Sc1ccccc1C=C2OP(=O)(O)OC1=Cc2cc(C(C)C(=O)O)ccc2Sc2ccccc21 (stereo not drawn) [CLH638] | 0.1 to 100
CC(C(=O)O)c1ccc2c(c1)C=C(OP(=O)(O)OC1=Cc3cc(C(C)C(=O)O)ccc3Sc3ccccc31)c1ccccc1S2 (stereo not drawn) [CLH680] | 1000 to 10000
